The compounds below were run against T1, mUSP18 (Mus musculus, UniProt Q9WTV6) (assay: High-throughput screening, ISG15ct-RhoMP, single dose 1.25 µM). Conditions: mUSP18 %inhibition; carboxylic acid (CA) building block alone; read-out: %inh CA only.
T1 construct: (46-368); His-tag (N); made in house
T1 sequence (Q9WTV6 46-368): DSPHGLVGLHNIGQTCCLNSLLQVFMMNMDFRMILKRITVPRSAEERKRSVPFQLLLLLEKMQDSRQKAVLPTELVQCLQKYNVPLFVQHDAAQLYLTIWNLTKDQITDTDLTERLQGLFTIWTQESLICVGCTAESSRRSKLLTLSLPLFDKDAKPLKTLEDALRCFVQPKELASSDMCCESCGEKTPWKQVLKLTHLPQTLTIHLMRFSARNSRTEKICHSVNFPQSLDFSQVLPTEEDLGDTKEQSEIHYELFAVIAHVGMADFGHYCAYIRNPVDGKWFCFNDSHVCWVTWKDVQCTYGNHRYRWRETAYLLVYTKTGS
Format: biochemical, murine

| Compound | inhibition at 1.25 µM [%] |
| --- | --- |
| O=Cc1ccccc1C(=O)O [CA045] | -3.41 |
| O=Cc1cccc(C(=O)O)c1 [CA046] | 0.78 |
| O=C(O)CN1C(=O)c2ccccc2C1=O [CA049] | 0.06 |
| COc1cc(CC(=O)O)ccc1O [CA050] | -1.29 |
| O=C(O)CCc1ccc(O)cc1 [CA051] | -3.68 |
| CNc1ccc(C(=O)O)cc1 [CA052] | -7.36 |
| O=C(O)c1cc([N+](=O)[O-])ccc1Br [CA054] | -7.96 |
| O=C(O)c1c(F)c(F)c(O)c(F)c1F [CA055] | -5.28 |
| CC(=O)CCC(=O)O [CA056] | -7.82 |
| O=C(O)c1cccc(B(O)O)c1 [CA057] | -5.9 |
| O=C(O)CCc1cccnc1 [CA058] | -2.47 |
| O=C(O)c1ccc(F)c(F)c1 [CA059] | -4.22 |
| CC(C)(C)OC(=O)NC1(C(=O)O)CC1 [CA060] | -6.62 |
| O=C(NCc1ccc(C(=O)O)cc1)OCC1c2ccccc2-c2ccccc21 [CA061] | 13.4 |
| CN(C)c1ccc(C(=O)O)cc1 [CA062] | -0.0145 |
| CC(C)(C)OC(=O)N1C[C@@H](O)C[C@@H]1C(=O)O [CA063] | -5.22 |
| O=C(O)c1ccc(N2CCCC2)cc1F [CA064] | -1.15 |
| CC(C)(C)OC(=O)N1CC[C@H](C(=O)O)C1 [CA067] | -11.3 |
| O=C(O)c1ccc2cc3ccccc3cc2c1 [CA068] | 6.72 |
| O=C(O)c1cccc2cc3ccccc3cc12 [CA069] | -0.58 |
| N#CCC(=O)O [CA070] | -5.36 |

| Compound | inhibition at 1.25 µM [%] |
| --- | --- |
| CC(=O)Oc1ccccc1C(=O)O [CA071] | -4.57 |
| O=C(O)CCc1ccccc1 [CA072] | -7.29 |
| O=C(O)C(Cl)(Cl)Cl [CA073] | 4.86 |
| O=C(O)CN1CCOCC1 [CA074] | -1.88 |
| O=C1CC(C(=O)O)NC(=O)N1 (centres unmarked) [CA075] | -4.58 |
| CN1CCN(CC(=O)O)CC1 [CA076] | -7.27 |
| O=C(O)C1CC1 [CA077] | -6.84 |
| O=C(O)CC1C(=O)Nc2ccccc21 (centres unmarked) [CA078] | -7.04 |
| CC(=O)C(=O)O [CA079] | -7.45 |
| COCC(=O)O [CA080] | -8.74 |
| Cc1ncc(C(=O)O)s1 [CA082] | -10.3 |
| O=C(O)c1ccc2c(c1)OCO2 [CA083] | -4.98 |
| O=C(O)c1ccc2c(c1)ncn2C1CCCCO1 (centres unmarked) [CA084] | -10.2 |
| CN1CCN(c2ccc(C(=O)O)cc2)CC1 [CA085] | 5.37 |
| O=C(O)c1ccc(N2CCOCC2)cc1 [CA086] | 2 |
| CN1CCC(C(=O)O)CC1 [CA087] | -3.93 |
| CC(=O)N1CCC(C(=O)O)CC1 [CA088] | -2.57 |
| O=C(O)C1CCN(c2ncccn2)CC1 [CA089] | -4.93 |
| O=C(O)c1nc(N2CCCC2)ncc1Cl [CA090] | 23.1 |
| O=C(O)C(Cc1c[nH]cn1)NS(=O)(=O)c1ccc(Cl)cc1 (centres unmarked) [CA091] | 20.4 |
| O=C(O)Cc1csc(-c2cnccn2)n1 [CA092] | 15.3 |

Same assay, conditions: mUSP18 %inhibition; carboxylic acid (CA) with coupling reagents DIC/HOBT; read-out: %inh CA + DIC/HOBT

| Compound | inhibition at 1.25 µM [%] |
| --- | --- |
| O=Cc1ccccc1C(=O)O [CA045] | -8.39 |
| O=Cc1cccc(C(=O)O)c1 [CA046] | -7.39 |
| O=C(O)CN1C(=O)c2ccccc2C1=O [CA049] | -15.8 |
| COc1cc(CC(=O)O)ccc1O [CA050] | -15.5 |
| O=C(O)CCc1ccc(O)cc1 [CA051] | -16.6 |
| CNc1ccc(C(=O)O)cc1 [CA052] | -19.1 |
| O=C(O)c1cc([N+](=O)[O-])ccc1Br [CA054] | -15.9 |
| O=C(O)c1c(F)c(F)c(O)c(F)c1F [CA055] | -14.4 |
| CC(=O)CCC(=O)O [CA056] | -15.2 |
| O=C(O)c1cccc(B(O)O)c1 [CA057] | -16.2 |
| O=C(O)CCc1cccnc1 [CA058] | -16.4 |
| O=C(O)c1ccc(F)c(F)c1 [CA059] | -18.1 |
| CC(C)(C)OC(=O)NC1(C(=O)O)CC1 [CA060] | -13.2 |
| O=C(NCc1ccc(C(=O)O)cc1)OCC1c2ccccc2-c2ccccc21 [CA061] | -3.66 |
| CN(C)c1ccc(C(=O)O)cc1 [CA062] | 33.7 |
| CC(C)(C)OC(=O)N1C[C@@H](O)C[C@@H]1C(=O)O [CA063] | -16.4 |
| O=C(O)c1ccc(N2CCCC2)cc1F [CA064] | -11.3 |
| CC(C)(C)OC(=O)N1CC[C@H](C(=O)O)C1 [CA067] | -14.4 |
| O=C(O)c1ccc2cc3ccccc3cc2c1 [CA068] | 2.22 |
| O=C(O)c1cccc2cc3ccccc3cc12 [CA069] | -8.94 |
| N#CCC(=O)O [CA070] | -14.2 |

| Compound | inhibition at 1.25 µM [%] |
| --- | --- |
| CC(=O)Oc1ccccc1C(=O)O [CA071] | -15.7 |
| O=C(O)CCc1ccccc1 [CA072] | -13.3 |
| O=C(O)C(Cl)(Cl)Cl [CA073] | -12.6 |
| O=C(O)CN1CCOCC1 [CA074] | -17.1 |
| O=C1CC(C(=O)O)NC(=O)N1 (centres unmarked) [CA075] | -15.1 |
| CN1CCN(CC(=O)O)CC1 [CA076] | -15.7 |
| O=C(O)C1CC1 [CA077] | -14.4 |
| O=C(O)CC1C(=O)Nc2ccccc21 (centres unmarked) [CA078] | -14.2 |
| CC(=O)C(=O)O [CA079] | -14.4 |
| COCC(=O)O [CA080] | -15.7 |
| Cc1ncc(C(=O)O)s1 [CA082] | -14.8 |
| O=C(O)c1ccc2c(c1)OCO2 [CA083] | -14.2 |
| O=C(O)c1ccc2c(c1)ncn2C1CCCCO1 (centres unmarked) [CA084] | -14.9 |
| CN1CCN(c2ccc(C(=O)O)cc2)CC1 [CA085] | -9.79 |
| O=C(O)c1ccc(N2CCOCC2)cc1 [CA086] | 15.8 |
| CN1CCC(C(=O)O)CC1 [CA087] | -14.3 |
| CC(=O)N1CCC(C(=O)O)CC1 [CA088] | -12.6 |
| O=C(O)C1CCN(c2ncccn2)CC1 [CA089] | -12.3 |
| O=C(O)c1nc(N2CCCC2)ncc1Cl [CA090] | 14.2 |
| O=C(O)C(Cc1c[nH]cn1)NS(=O)(=O)c1ccc(Cl)cc1 (centres unmarked) [CA091] | 8.3 |
| O=C(O)Cc1csc(-c2cnccn2)n1 [CA092] | 13.1 |

Same assay, conditions: read-out: %inh CA + DIC/HOBT

| Compound | inhibition at 1.25 µM [%] |
| --- | --- |
| C#CCCCC(=O)O [CA029] | -11.6 |

Same assay, conditions: read-out: %inh CA only

| Compound | inhibition at 1.25 µM [%] |
| --- | --- |
| C#CCCCC(=O)O [CA029] | -3.41 |

From article PMC12668310, “High‐Throughput Synthesis and Screening of a Cyanimide Library Identifies Selective Inhibitors of ISG15‐Specific Protease mUSP18” (Angewandte Chemie (International Ed. in English), 2025)
